Common to all, as to type: in vivo, Mice
Assay [1] has as its system local immune cells at the injection site (muscle). In words: Effect of RvE1 on the local immune cells profile induced by adjuvants injection (flow cytometry of muscle cells). As to conditions: muscles at 24 h. The method, then: Mice (n=6/gr) were injected intramuscularly with PBS, AS03 adjuvant (oil-in-water emulsion) or AS01B adjuvant (MPL+QS21 in liposomes). 1 h and 6 h later, synthetic RvE1 (0.2 μg/dose) or PBS was administered also intramuscularly. Muscles were collected at 24 h following adjuvant/PBS administration and local immune cells were extracted. The cells were stained with the following antibodies: Lytic, SiglecF, CD90.2, Ly6G, CD11b, CD11c, HLA DR, CD45 and CD19 and analysed by flow cytometry. The cell recruitment is expressed in number of cells per muscle. The plotted area represents the mean obtained for a specific subpopulation. A 2-way ANOVA was performed to compare the different groups. *: p<0.05. The chemical structure of the synthetic RvE1 used in the present experiment is identical to the chemical structure of RvE1 disclosed in Buckley et al. (“Proresolving Lipid Mediators and Mechanisms in the Resolution of Acute Inflammation”, 2014, Immunity 40: 315-327).
(In general: A flow cytometer gives signals particle by particle.)

For assay [2], the system named is cytokines (TNFα, IL-6, IL1b and IFNγ) and chemokine (G-CSF, MCP-1, KC and MIP-1a) levels in muscle. In words: Effect of RvE1 on the local cytokine profile induced by adjuvants injection (CBA on muscle homogenates). The procedure:
Mice (n=6/gr) were injected intramuscularly with PBS, adjuvant AS03 or adjuvant AS01B. 1 h and 6 h later, the same synthetic RvE1 as the one used in Example 1 (0.2 μg/dose), or PBS was administered also intramuscularly. Muscles were collected at 4 h (A) and 24 h (B) following adjuvant or PBS administration and frozen at −70° C. Muscles were thawed and homogenized and cytokines (TNFα, IL-6, IL1b and IFNγ) and chemokine (G-CSF, MCP-1, KC and MIP-1a) levels in the cleared homogenates were measured by CBA (Becton Dickinson). The cytokine/chemokine concentrations are expressed in pg/mL. The plotted area represents the mean obtained for a specific cytokine/chemokine. A 2-way ANOVA was performed to compare the different groups. *: p<0.05 (See FIG. 3).

Assay [3] has as its system local immune cells at the injection site (muscle). In words: Effect of MaR1 on the local immune cells profile induced by adjuvant injection (flow cytometry of muscle cells). As to conditions: MaR1 5 ng/dose intramuscularly 1 h prior to AS01B. The procedure:
Mice (n=6/gr) were injected intramuscularly with synthetic 7-Maresin-1 (MaR1) (5 ng/dose) or PBS as a control. 1 h later, mice received intramuscularly adjuvant AS01B or PBS. Muscles were collected at 4 h and 24 h following 7-Maresin-1/PBS administration and local immune cells were extracted. The cells were stained with the following antibodies: Lytic, SiglecF, CD90.2, Ly6G, CD11b, CD11c, HLA DR, CD45 and CD19 and analysed by flow cytometry. The cell recruitment is expressed in number of cells per muscle. The plotted area represents the mean obtained for a specific subpopulation. A 2-way ANOVA was performed to compare the different groups. *: p<0.05. The chemical structure of the synthetic MaR1 used in the present experiment is identical to the chemical structure of MaR1 disclosed in Buckley et al. (“Proresolving Lipid Mediators and Mechanisms in the Resolution of Acute Inflammation”, 2014, Immunity 40: 315-327).

Assay [4] concerns cytokines (TNFα, IL-6, IL1b and INFγ) and chemokine (G-CSF, MCP-1, KC and MIP-1a) levels in muscle. In words: Effect of MaR1 on the local cytokine profile induced by adjuvant injection (CBA on muscle homogenates). As to conditions: MaR1 5 ng/dose intramuscularly 1 h prior to AS01B; 4 h post-injection of the MaR1. The procedure:
Mice (n=6/gr) were injected intramuscularly with the same synthetic MaR1 as the one used in Example 2 (5 ng/dose), or PBS as a control. 1 h later, mice received intramuscularly adjuvant AS01B or PBS. Muscles were collected at 4 h and 24 h following MaR1/PBS administration and frozen at −70° C. Muscles were thawed and homogenized and cytokines (TNFα, IL-6, IL1b and INFγ) and chemokine (G-CSF, MCP-1, KC and MIP-1a) levels in the cleared homogenates were measured by CBA (Becton Dickinson). The cytokine/chemokine concentrations are expressed in pg/mL. The plotted area represents the mean obtained for a specific cytokine/chemokine. A 2-way ANOVA was performed to compare the different groups. *: p<0.05 (See FIG. 4).

Assay [5] deals with CD4+ or CD8+ T cells expressing at least 2 cytokines. Kind of assay: Effect of MaR1 on specific T cell responses induced by vaccine injection (intracellular cytokine staining of spleen cells). As to conditions: MaR1 5 ng/dose intramuscularly 1 h prior to OVA and HBS antigens in AS01B; vs antigens and adjuvant alone. The procedure: Mice (n=30/gr) were injected intramuscularly with the same synthetic MaR1 as the one used in Example 2 (5 ng/dose) or PBS as a control. 1 h later, mice were vaccinated with OVA (Ovalbumin) and HBS (Hepatitis B Surface) antigens re-suspended in adjuvant AS01B or in PBS. This vaccination scheme was repeated 15 days later. Spleens were removed 7 days after the second immunization, and immune cells were extracted and stimulated overnight with OVA (A) or HBS (B) peptides. After surface staining with anti-CD4 and anti-CD8 antibodies, cells were labeled intra-cellularly with anti-IL-2, anti-IFN-γ and anti-TNF-α and analyzed by flow cytometry. Results are expressed as percentages of CD4+ or CD8+ T cells expressing at least 2 cytokines among the ones tested. Each point represents an individual value, the bar represents the mean+/−SD (see FIG. 5).

The subject of assay [6] is Anti-OVA or anti-HBs antibodies. In words: Effect of MaR1 on specific antibody responses induced by vaccine injection (ELISA on sera). As to conditions: MaR1 5 ng/dose intramuscularly 1 h prior to OVA and HBS antigens in AS01B; vs antigens and adjuvant alone. The method, then:
Mice (n=30/gr) were injected intramuscularly with the same synthetic MaR1 as the one used in Example 2 (5 ng/dose), or PBS as a control. 1 h later, mice were vaccinated with OVA and HBS antigens re-suspended in adjuvant AS01B or in PBS. This vaccination scheme was repeated 15 days later. Sera were taken 7 days after the second immunization. Anti-OVA (A) or anti-HBs (B) antibodies were detected by ELISA. Antibody titers are expressed in ng/mL. Each point represents an individual value; the bar represents the mean+/−SD. (See FIG. 6).
For orientation: ELISA stands for enzyme-linked immunosorbent assay.

With `CC[C@@H](O)/C=C/C=C\C[C@@H](O)/C=C/C=C/C=C\[C@@H](O)CCCC(=O)O` [RvE1, Resolvin E1], the “recruitment of immune cells at the injection site (number of cells per muscle)” value in assay [1] (RvE1 0.2 μg/dose intramuscularly 1 h and 6 h after AS01B, vs AS01B alone) was “The same conclusion holds true”; in assay [1] (RvE1 0.2 μg/dose intramuscularly 1 h and 6 h after AS03, vs AS03 alone), “significantly reduced recruitment of all the immune cell types tested”. In addition, in assay [1] (RvE1 on its own with PBS alone, compared with PBS alone), the “pattern of immune cells at the injection site” value (shortened to “pattern of immune cells”) is reported as “only a minimal effect on the pattern of immune cells”. Moreover, the “modulation of local cytokines/chemokines concentration” value in assay [2] (RvE1 0.2 μg/dose intramuscularly after AS01B, 4 h post-injection of the adjuvant) was “no significant modulating effect was observed”; in assay [2] (RvE1 0.2 μg/dose intramuscularly after AS01B, 24 h post-injection of the adjuvant), “no significant modulating effect was observed”; in assay [2] (RvE1 0.2 μg/dose intramuscularly after AS03, 4 h post-injection of the adjuvant), “a significant modulating effect was observed”; in assay [2] (RvE1 0.2 μg/dose intramuscularly after AS03, 24 h post-injection of the adjuvant) it was “no significant effect was observed”.

As for `CC/C=C\C/C=C\C[C@H](O)\C=C/C=C/C=C/[C@H](O)C/C=C\CCC(=O)O` [MaR1, 7-Maresin-1], the “pattern of immune cells” value in assay [3] (4 h post-injection) is recorded as “may be too early to detect an effect”. In assay [3] (24 h post-injection), the “pattern of immune cells” value is “increase of B cells and T cells recruitment on site”. Moreover, in assay [4], the “modulation of local cytokines/chemokines profile” value was “significant transient modulating effect”. Further, in assay [5], the “CD4+ T cell response induced by adjuvanted vaccine” value is “did not negatively impact the T cell immune response” and the “CD8+ T cell response induced by adjuvanted vaccine” value is “did not negatively impact the T cell immune response”. Besides, in assay [6], the “anti-HBS antibody response induced by adjuvanted vaccine” value is “did not negatively impact the antibody immune response” and the “anti-OVA antibody response induced by adjuvanted vaccine” value is on record as “did not negatively impact the antibody immune response”.
